In US9492471B2, “Methods of treating a disease or disorder associated with Bruton'S Tyrosine Kinase” (Celgene Avilomics Research, Inc., priority 2013, dated 2016):
Where two headings read alike, the source gives them in different places.

Legend:
Assay in all cases: HotSpot kinase profiling
Assay type in all cases: biochemical
ALK1/ACVRL1 = molecular target: T1, ALK1/ACVRL1 (Homo sapiens, UniProt P37023)
T1 construct: purchased Reaction Biology Corp
Method in brief: (§1)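 Percent inhibition, averaged when run more than once and referenced to a DMSO negative control, came from a radioactive filter-binding readout on P81 paper. Reactions of kinase with freshly made substrate and cofactors ran for 2 h at room temperature.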

CAMK4 = molecular target: T2, CAMK4 (Homo sapiens, UniProt Q16566)
T2 construct: purchased Reaction Biology Corp
T2 sequence (Q16566 1-473): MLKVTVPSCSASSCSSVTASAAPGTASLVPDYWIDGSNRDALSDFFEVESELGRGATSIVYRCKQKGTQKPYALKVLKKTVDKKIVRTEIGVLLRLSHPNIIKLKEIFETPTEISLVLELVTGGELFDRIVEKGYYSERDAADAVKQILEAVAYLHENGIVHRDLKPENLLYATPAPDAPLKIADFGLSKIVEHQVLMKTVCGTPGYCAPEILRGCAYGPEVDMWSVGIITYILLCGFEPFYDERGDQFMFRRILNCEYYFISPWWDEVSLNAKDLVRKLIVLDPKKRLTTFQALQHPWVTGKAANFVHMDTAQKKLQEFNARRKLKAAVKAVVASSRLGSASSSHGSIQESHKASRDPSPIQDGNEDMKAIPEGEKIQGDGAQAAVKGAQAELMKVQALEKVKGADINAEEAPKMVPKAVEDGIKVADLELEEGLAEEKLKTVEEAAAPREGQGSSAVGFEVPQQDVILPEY
Method in brief: as §1

DLK/MAP3K12 = molecular target: T3, DLK/MAP3K12 (Homo sapiens, UniProt Q12852)
T3 construct: purchased Reaction Biology Corp
T3 sequence (Q12852 1-859): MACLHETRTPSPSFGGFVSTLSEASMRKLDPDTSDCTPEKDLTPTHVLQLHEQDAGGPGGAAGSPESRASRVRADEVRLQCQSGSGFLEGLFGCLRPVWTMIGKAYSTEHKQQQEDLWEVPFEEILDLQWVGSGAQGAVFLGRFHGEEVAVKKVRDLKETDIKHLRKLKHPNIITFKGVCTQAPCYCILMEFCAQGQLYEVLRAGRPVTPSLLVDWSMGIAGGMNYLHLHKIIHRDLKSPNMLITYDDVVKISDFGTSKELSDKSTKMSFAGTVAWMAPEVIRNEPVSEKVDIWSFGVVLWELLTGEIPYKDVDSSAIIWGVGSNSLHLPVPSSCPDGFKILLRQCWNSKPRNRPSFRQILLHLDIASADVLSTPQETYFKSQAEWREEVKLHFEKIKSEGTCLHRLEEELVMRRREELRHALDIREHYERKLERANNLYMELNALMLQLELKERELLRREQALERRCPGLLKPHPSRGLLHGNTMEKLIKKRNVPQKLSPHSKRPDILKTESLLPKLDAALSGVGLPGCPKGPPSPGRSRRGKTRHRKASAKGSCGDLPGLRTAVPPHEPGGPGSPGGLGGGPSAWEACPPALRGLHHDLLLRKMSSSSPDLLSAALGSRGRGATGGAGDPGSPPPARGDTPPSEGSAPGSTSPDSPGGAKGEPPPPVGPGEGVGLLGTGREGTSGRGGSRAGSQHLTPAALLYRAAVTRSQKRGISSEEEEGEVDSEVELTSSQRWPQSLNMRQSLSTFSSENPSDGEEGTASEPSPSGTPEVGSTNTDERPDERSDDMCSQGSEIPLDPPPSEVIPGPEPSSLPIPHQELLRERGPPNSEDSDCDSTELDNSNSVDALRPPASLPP
Method in brief: as §1

FLT3 = molecular target: T4, FLT3 (Homo sapiens, UniProt P36888)
T4 construct: purchased Reaction Biology Corp
T4 sequence (P36888 27-993): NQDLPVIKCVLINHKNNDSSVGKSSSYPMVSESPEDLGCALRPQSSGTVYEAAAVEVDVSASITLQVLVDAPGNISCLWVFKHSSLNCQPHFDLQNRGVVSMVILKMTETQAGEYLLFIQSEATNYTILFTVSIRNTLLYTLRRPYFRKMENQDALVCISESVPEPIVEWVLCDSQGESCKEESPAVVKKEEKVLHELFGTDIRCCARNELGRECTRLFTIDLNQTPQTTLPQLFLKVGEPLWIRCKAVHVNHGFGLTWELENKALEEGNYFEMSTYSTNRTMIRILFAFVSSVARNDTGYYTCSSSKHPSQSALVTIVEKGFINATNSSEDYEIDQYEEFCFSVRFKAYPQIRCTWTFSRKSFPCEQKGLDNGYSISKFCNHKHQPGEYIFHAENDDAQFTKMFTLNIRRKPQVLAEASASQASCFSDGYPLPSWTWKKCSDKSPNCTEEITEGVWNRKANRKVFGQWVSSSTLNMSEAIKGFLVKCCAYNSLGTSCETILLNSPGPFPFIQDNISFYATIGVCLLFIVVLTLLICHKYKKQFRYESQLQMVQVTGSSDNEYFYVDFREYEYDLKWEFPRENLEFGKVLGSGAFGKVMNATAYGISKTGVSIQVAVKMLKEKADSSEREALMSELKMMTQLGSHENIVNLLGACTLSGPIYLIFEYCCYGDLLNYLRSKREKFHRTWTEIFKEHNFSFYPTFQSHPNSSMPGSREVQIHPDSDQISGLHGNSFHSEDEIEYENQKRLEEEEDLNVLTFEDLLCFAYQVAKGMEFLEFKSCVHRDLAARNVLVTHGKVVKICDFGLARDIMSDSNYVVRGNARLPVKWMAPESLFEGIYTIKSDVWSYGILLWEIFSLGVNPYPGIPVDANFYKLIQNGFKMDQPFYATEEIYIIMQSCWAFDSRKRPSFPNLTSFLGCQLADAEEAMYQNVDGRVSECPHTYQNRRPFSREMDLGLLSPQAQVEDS
Method in brief: as §1

[1] = read-out: % Enzyme Activity (relative to DMSO controls) Run 1
[2] = read-out: % Enzyme Activity (relative to DMSO controls) Run 2

T1 sequence (P37023 22-503): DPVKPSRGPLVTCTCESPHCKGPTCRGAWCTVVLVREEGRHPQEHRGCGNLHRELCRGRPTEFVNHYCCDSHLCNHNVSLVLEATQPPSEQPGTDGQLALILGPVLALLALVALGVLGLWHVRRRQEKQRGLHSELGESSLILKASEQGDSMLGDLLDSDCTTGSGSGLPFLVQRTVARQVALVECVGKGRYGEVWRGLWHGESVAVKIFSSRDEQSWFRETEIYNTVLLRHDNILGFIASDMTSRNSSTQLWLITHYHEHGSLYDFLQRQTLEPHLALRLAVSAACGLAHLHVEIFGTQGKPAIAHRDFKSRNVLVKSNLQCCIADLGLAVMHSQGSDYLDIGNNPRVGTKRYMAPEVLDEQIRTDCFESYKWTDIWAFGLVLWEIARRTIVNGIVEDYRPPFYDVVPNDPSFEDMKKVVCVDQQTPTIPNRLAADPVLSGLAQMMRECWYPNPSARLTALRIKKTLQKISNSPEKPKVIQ

C=CC(=O)Nc1cccc(Nc2nc(Nc3ccc(OCCOC)c(F)c3)ncc2F)c1 [Compound 2]
inhibition at 3 µM (ALK1/ACVRL1): -24.4%
remaining activity at 3 µM (ALK1/ACVRL1; [1]): 125%
remaining activity at 3 µM (ALK1/ACVRL1; [2]): 124%
inhibition at 3 µM (CAMK4): -2.26%
remaining activity at 3 µM (CAMK4; [1]): 102%
remaining activity at 3 µM (CAMK4; [2]): 102%
inhibition at 3 µM (DLK/MAP3K12): 22.8%
remaining activity at 3 µM (DLK/MAP3K12; [1]): 74.2%
remaining activity at 3 µM (DLK/MAP3K12; [2]): 80.2%
inhibition at 3 µM (FLT3): 96.8%
remaining activity at 3 µM (FLT3; [1]): 3.19%
remaining activity at 3 µM (FLT3; [2]): 3.25%
